Assay results taken from patent US8703815B2, “Small molecules that covalently modify transthyretin” (The Scripps Research Institute, priority 2009, dated 2014).
Values joined by “and” are separate entries in the source; they are usually repeats but may differ in a detail not shown here. Equal values may be shown once. Read-outs that look alike come from different tables or passages of the source.

Columns and labels:
[1] = target: T1, WT-TTR (Homo sapiens, UniProt P02766); test: Acid-mediated WT-TTR fibril formation assay (turbidity at 400 nm); assay type: biochemical; settings: for IC50: % fibril formation after 72 hours, read-out: IC50 (apparent), inhibition of WT-TTR amyloidogenesis
T1 construct: composed of 127-residue β-sheet-rich subunits; made in house; host or cells: E. coli
Method: The mixtures were vortexed and incubated (maintained) for 18 hours at 25° C.

[2] = target: T2, V30M-TTR (Homo sapiens, UniProt P02766, V50M); test: Acid-mediated V30M-TTR fibril formation assay (turbidity at 400 nm); assay type: biochemical; settings: pH 4.4, 72 hours, 37° C.
T2 construct: composed of 127-residue β-sheet-rich subunits; made in house
Method: Compounds (5 μL of 1.44 mM solution in DMSO) were added to 495 μL of TTR (7.2 μM, in 10 mM sodium phosphate, 100 mM KCl, 1 mM EDTA, pH 7.0). The mixtures were vortexed and incubated (maintained) for 18 hours at 25° C. […] The solutions were vortexed to evenly distribute any precipitate, and turbidity was measured at 400 nm using a Hewlett Packard model 8453 UV-VIS Spectrophotometer.

[3] = target: T1, WT-TTR; test: Kinetics of the A2-TTR conjugation reaction (fluorescence); assay type: binding; settings: A2 6 μM
Method: Because the one-chain, one-binding-site TTR tag being created is envisioned to be useful for doing pulse-chase studies in the secretory pathway of eukaryotic cells, the kinetics of WT-TTR modification by A2 in concentrated cell lysate was investigated. […] We added WT-TTR at a final concentration of 2 μM (tetramer) to the HeLa cell lysate (2 μg/μL total protein concentration) to which A2 (6 μM) was added. At 37° C., the conjugate formed with a t50 of 18 minutes, within experimental error of the t50 (19 minutes) of TTR (2 μM) conjugate formation with A2 (6 μM) in phosphate buffer (pH 7).
The covalent TTR modifier A2 (1 μL of 0.6 mM solution in DMSO, final concentration: 6 μM) was added to 90 μL of HeLa cell lysate (final protein concentration: 2 μg/μL) and 10 μL of WT-TTR (20 μM in pH 7.0 phosphate buffer, final concentration: 2 μM). The time-dependent fluorescence change of the conjugate derived from A2 was monitored utilizing a microplate spectrophotometer reader (Gemini SpectraMax®, Molecular Devices, Sunnyvale, Calif.) for 3 hours at 37° C. The fluorescence (λex=328 nm and λem=430 nm) was measured from the bottom of the plate without shaking.

[4] = target: T1, WT-TTR; test: Selectivity of A2 TTR conjugation in HeLa cell lysate (RP-HPLC, LC-MS); assay type: binding; settings: WT-TTR 5 μM, A2 15 μM, maximum of 50%
Method: The ability of A2 to form a chemoselective amide bond with the K15 residue of TTR in cell lysate was assessed by RP-HPLC and LC-MS analysis. […] Immunoisolation of TTR affords the expected mass resulting from conjugate formation (14,185 m/z [M+H] for benzoylation by A2).

[5] = tested on: WT-TTR in transfected HeLa cells; test: Confocal fluorescence imaging of WT-TTR in transfected HeLa cells; assay type: cell-based, human; settings: A2 10 μM, 1 hour
Method: Secreted WT-TTR was produced in HeLa cells by transient transfection and the cells were treated with A2 for 1 hour prior to imaging using confocal fluorescence microscopy. The expression of WT-TTR in the HeLa cells after transient transfection was confirmed using western blot analysis, as was the absence of TTR in the empty vector control. […] TTR conjugate fluorescence co-localized with calnexin indirect immunofluorescence, a marker for the endoplasmic reticulum (ER), confirming that WT-TTR within the secretory pathway is being observed. TTR conjugate fluorescence is also expected in the Golgi and in secretory vesicles, explaining why TTR conjugate fluorescence is observed in organelles in addition to the ER.
HeLa cells were plated on cover slips in DMEM containing 10% FBS at 37° C. under 5% CO2 the day before they were transfected with pcDNA3.1(+)-empty vector or pcDNA3.1(+)-WT-TTR using […] (Roche) according to the manufacturer's instructions. After 48 hours, the cells were washed with PBS twice before adding fresh DMEM (without FBS) with A2 (final concentration: 10 μM), and the cells were incubated at 37° C. for 1 hour. After two washes with PBS, the cells were fixed at 25° C. for 15 minutes with 3.7% (w/v) paraformaldehyde in PBS. […]

[6] = tested on: Huh-7 human liver (hepatoma) cells; test: Labeling of endogenous TTR in Huh-7 cells; assay type: cell-based; settings: A2 10 μM, 30 minutes
Text: The confocal fluorescence observations are consistent with substantial evidence that the liver secretes the vast majority, if not all, of the TTR into the human bloodstream [Felding et al., Biochimica et Biophysica Acta 1982, 716, 446-9]. That TTR could be visualized in the secretory pathway addresses the sensitivity of A2-derived TTR fluorescent conjugate-based detection [Sekijima et al., Cell 2005, 121, 73-85].
Huh-7 cells or Gaucher's patient-derived fibroblasts (Coriell Cell Repositories, GM08760) were maintained in DMEM containing 10% FBS at 37° C. under 5% CO2. The cells were plated the day before compound treatment and imaging. Cells were washed twice with PBS and then treated with A2 (final concentration: 10 μM) for 30 minutes at 37° C. in a CO2 incubator. After two washes, cells were fixed at 25° C. for 15 minutes with 3.7% paraformaldehyde (w/v) in PBS and microscopic images were acquired as described above.

Row | IC50 ([1]; WT-TTR 3.6 μM) [µM] | IC50 ([1]; WT-TTR […]) [µM] | % Fibril Formation 7.2 μM (WT-TTR) ([1]; WT-TTR […], compound 7.2 μM, pH 4.4, 72 hours, 37° C.) [%] | % Fibril Formation […] (WT-TTR) ([1]; WT-TTR […], compound […], pH 4.4, 72 hours, 37° C.) [%] | % Fibril Formation 7.2 μM (V30M-TTR) ([2]; compound 7.2 μM) [%] | % Fibril Formation […] (V30M-TTR) ([2]; compound […]) [%] | t50 of conjugate formation in phosphate buffer (pH 7) ([3]; TTR 2 μM) [minutes] | t50 of conjugate formation in HeLa cell lysate ([3]; WT-TTR 2 μM, lysate 2 μg/μL, 37° C.) | % of TTR subunits modified in HeLa cell lysate [4] [%] | SMILES | conjugate fluorescence in HeLa cells expressing WT-TTR [5] | fluorescence in Huh-7 cells [6]
1 | 1.96 to 2.26 | 2 | 2 | 16 | 3 | 34 | – | – | – | Cc1cc(/C=C/c2cccc(C(=O)Sc3ccccc3)c2)cc(C)c1O [Compound 2, (E)-S-phenyl 3-(4-hydroxy-3,5-dimethylstyryl)benzothioate] | – | –
2 | – | – | – | – | – | – | 19 | 18 min and 20 min | 49 | Cc1cc(/C=C/c2cc(C(=O)Sc3ccc(F)cc3)cc(N(C)C)c2)cc(C)c1O [Compound A2, (E)-S-4-fluorophenyl 3-(dimethylamino)-5-(4-hydroxy-3,5-dimethylstyryl)-benzothioate] | strong conjugate fluorescence | strong fluorescence
